Tests used:
HDAC 1 = HDAC 1 (Homo sapiens, UniProt Q13547); assay: HDAC 1 inhibition assay with about 3 hours preincubation of enzyme and compound; assay type: biochemical; details: read-out: HDAC 1 inhibitory activity (IC50 [μM]) (3-hour preincubation)
Experimental: The second assay is similar to the first assay described above, except that preincubation is carried out for about 3 hours after the enzyme is introduced. The test compound was suspended in, and titrated in DMSO. It was then spotted into a 384-well test plate. The enzyme, HDAC 1, was diluted in the same assay buffer as used in the previous assay and added to the pre-spotted compound. The enzyme/compound mix was incubated at room temperature for about 3 hours. The peptide substrate containing a fluorophore/quencher pair was diluted in the assay buffer and added to the compound/enzyme mix initiating the reaction. The reaction incubated at room temperature for 45 minutes. A concentrated developer solution was diluted in the assay buffer, and added to the reaction. The reaction was incubated at room temperature for about 15 minutes and relative fluorescence was read on an instrument reader.

CDK2 = CDK2 (Homo sapiens, UniProt P24941); assay: CDK2 inhibition (IC50); assay type: biochemical

Chain of HDAC 1 (Q13547 whole entry, species assumed): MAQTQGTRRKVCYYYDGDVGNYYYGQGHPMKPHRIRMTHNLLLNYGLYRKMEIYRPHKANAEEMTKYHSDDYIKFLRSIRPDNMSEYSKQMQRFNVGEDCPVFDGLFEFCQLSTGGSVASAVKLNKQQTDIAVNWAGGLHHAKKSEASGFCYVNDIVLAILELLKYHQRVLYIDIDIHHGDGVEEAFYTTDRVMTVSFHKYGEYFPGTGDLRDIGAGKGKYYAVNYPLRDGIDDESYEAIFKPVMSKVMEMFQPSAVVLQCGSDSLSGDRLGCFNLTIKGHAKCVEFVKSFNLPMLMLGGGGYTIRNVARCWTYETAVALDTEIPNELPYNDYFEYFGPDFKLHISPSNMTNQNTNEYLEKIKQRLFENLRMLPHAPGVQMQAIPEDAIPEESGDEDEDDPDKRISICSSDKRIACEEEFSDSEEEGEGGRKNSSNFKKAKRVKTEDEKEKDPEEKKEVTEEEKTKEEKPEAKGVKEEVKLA

Compound	IC50 (HDAC 1) [µM]	IC50 (CDK2) [µM]
Cc1ncc(-c2ccnc(Nc3ccc(C(=O)Nc4cc(F)ccc4N)cc3)n2)n1C(C)C [Example 4, N-(2-amino-5-fluoro-phenyl)-4-[4-(1-isopropyl-2-methylimidazol-5-yl)-pyrimidin-2-ylamino]-benzamide]	0.809	0.02
Cc1ncc(-c2nc(Nc3ccc(C(=O)Nc4cc(-c5cccs5)ccc4N)s3)ncc2F)n1C(C)C [Example 17, N-(2-amino-5-(thiophen-2-yl)phenyl)-5-(5-fluoro-4-(1-isopropyl-2-methylimidazol-5-yl)pyrimidin-2-ylamino)thiophene-2-carboxamide]	0.037	0.025
Cc1ncc(-c2ccnc(Nc3ccc(C(=O)Nc4cc(C(F)(F)F)ccc4N)cc3)n2)n1C(C)C [Example 6, N-(2-amino-5-(trifluoromethyl)phenyl)-4-(4-(1-isopropyl-2-methylimidazol-5-yl)pyrimidin-2-ylamino)benzamide]	> 10	0.01
Cc1ncc(-c2ccnc(Nc3ccc(C(=O)Nc4cc(-c5cccs5)ccc4N)cc3)n2)n1C(C)C [Example 3, N-(2-amino-5-thiophen-2-yl-phenyl)-4-[4-(1-isopropyl-2-methylimidazol-5-yl)-pyrimidin-2-ylamino]-benzamide]	0.019	0.04
Cc1ncc(-c2ccnc(Nc3ccc(C(=O)Nc4cc(-c5ccc(F)cc5)ccc4N)s3)n2)n1C(C)C [Example 13, N-(4-amino-4′-fluorobiphenyl-3-yl)-5-(4-(1-isopropyl-2-methylimidazol-5-yl)pyrimidin-2-ylamino)thiophene-2-carboxamide]	0.054	0.065
Cc1ncc(-c2ccnc(Nc3ccc(C(=O)NO)s3)n2)n1C(C)C [Example 8, N-hydroxy-5-(4-(1-isopropyl-2-methylimidazol-5-yl)pyrimidin-2-ylamino)thiophene-2-carboxamide]	0.656	0.002
Cc1ncc(-c2ncnc(Nc3ccc(C(=O)Nc4ccccc4N)cc3)n2)n1C(C)C [Example 12, N-(2-aminophenyl)-4-(4-(1-isopropyl-2-methylimidazol-5-yl)-1,3,5-triazin-2ylamino)benzamide]	0.153	0.34
Cc1cc(C(=O)Nc2cc(-c3ccc(F)cc3)ccc2N)sc1Nc1nccc(-c2cnc(C)n2C(C)C)n1 [Example 14, N-(4-amino-4′-fluorobiphenyl-3-yl)-5-(4-(1-isopropyl-2-methylimidazol-5-yl)pyrimidin-2-ylamino)-4-methylthiophene-2-carboxamide]	0.028	0.99
Cc1ncc(-c2ccnc(Nc3ncc(C(=O)Nc4cc(-c5ccc(F)cc5)ccc4N)s3)n2)n1C(C)C [Example 15, N-(4-amino-4′-fluorobiphenyl-3-yl)-2-(4-(1-isopropyl-2-methylimidazol-5-yl)pyrimidin-2-ylamino)thiazole-5-carboxamide]	0.049	1.04
Cc1ncc(-c2ccnc(Nc3ccc(C(=O)NO)cc3)n2)n1C(C)C [Example 2, N-hydroxy-4-[4-(1-isopropyl-2-methylimidazol-5-yl)-pyrimidin-2-ylamino]-benzamide]	0.241	0.01
Cc1ncc(-c2cnnc(Nc3ccc(C(=O)Nc4cc(-c5cccs5)ccc4N)cc3)n2)n1C(C)C [Example 7, N-(2-amino-5-(thiophen-2-yl)phenyl)-4-(5-(1-isopropyl-2-methylimidazol-5-yl)-1,2,4-triazin-3-ylamino)benzamide]	0.03	> 40
Cc1ncc(-c2cnnc(Nc3ccc(C(=O)Nc4ccccc4N)cc3)n2)n1C(C)C [Example 5, N-(2-aminophenyl)-4-(5-(1-isopropyl-2-methylimidazol-5-yl)-1,2,4-triazin-3-ylamino)benzamide]	0.423	> 40
Cc1ncc(-c2ccnc(Nc3ccc(C(=O)Nc4ccccc4N)cc3)n2)n1C(C)C [Example 1, N-(2-amino-phenyl)-4-[4-(1-isopropyl-2-methylimidazol-5-yl)-pyrimidin-2-ylamino]-benzamide]	0.273	0.03
Cc1ncc(-c2ccnc(Nc3ccc(C(=O)Nc4cc(-c5ccc(F)cc5)ccc4N)cc3)n2)n1C(C)C [Example 9, N-(4-amino-4′-fluorobiphenyl-3-yl)-4-(4-(1-isopropyl-2-methylimidazol-5-yl)pyrimidin-2-ylamino)benzamide]	0.04	0.027
Cc1ncc(-c2ccnc(Nc3ccc(C(=O)Nc4ccccc4N)s3)n2)n1C(C)C [Example 11, N-(2-aminophenyl)-5-(4-(1-isopropyl-2-methylimidazol-5-yl)pyrimidin-2-ylamino)thiophene-2-carboxamide]	4.37	0.012
Cc1ncc(-c2ccnc(Nc3ccc(C(=O)Nc4cc(-c5cccs5)ccc4N)s3)n2)n1C(C)C [Example 10, N-(2-amino-5-(thiophen-2-yl)phenyl)-5-(4-(1-isopropyl-2-methylimidazol-5-yl)pyrimidin-2-ylamino)thiophene-2-carboxamide]	0.034	0.026
Cc1ncc(-c2ccnc(Nc3ncc(C(=O)Nc4ccccc4N)s3)n2)n1C(C)C [Example 18, N-(2-aminophenyl)-2-(4-(1-isopropyl-2-methylimidazol-5-yl)pyrimidin-2-ylamino)thiazole-5-carboxamide]	0.41	2.1
Cc1ncc(-c2ccnc(Nc3ncc(C(=O)Nc4cc(-c5cccs5)ccc4N)s3)n2)n1C(C)C [Example 16, N-(2-amino-5-(thiophen-2-yl)phenyl)-2-(4-(1-isopropyl-2-methylimidazol-5-yl)pyrimidin-2-ylamino)thiazole-5-carboxamide]	0.032	2.15

Source: US8134000B2, “Imidazolyl pyrimidine inhibitor compounds” (Gilead Sciences, Inc., priority 2008, dated 2012)
